The source made the active and inactive calls. No cut-off for these calls is given here.

We go through one compound from ChEMBL document CHEMBL1126334, “Thromboxane receptor antagonist BMS-180291: A new pre-clinical lead” (Bioorg Med Chem Lett, 1992).

One series relates to Mus musculus. Put plainly: Time duration taken by the compound (0.2 mg/kg, po) to provide extended protection from U46,619 (2 mg/kg, iv) induced death. In kind it is functional.
A short description of series [1]: Oral bioavailability in African green monkeys; 20-25. In kind it is ADME, organism-based. The note with it: chlorocebus aethiops, in vivo, read-out: Bioavailabiility.
Series [2] has as its target T1, Thromboxane-A synthase (Homo sapiens) (UniProt P24557).
T1 sequence (whole entry): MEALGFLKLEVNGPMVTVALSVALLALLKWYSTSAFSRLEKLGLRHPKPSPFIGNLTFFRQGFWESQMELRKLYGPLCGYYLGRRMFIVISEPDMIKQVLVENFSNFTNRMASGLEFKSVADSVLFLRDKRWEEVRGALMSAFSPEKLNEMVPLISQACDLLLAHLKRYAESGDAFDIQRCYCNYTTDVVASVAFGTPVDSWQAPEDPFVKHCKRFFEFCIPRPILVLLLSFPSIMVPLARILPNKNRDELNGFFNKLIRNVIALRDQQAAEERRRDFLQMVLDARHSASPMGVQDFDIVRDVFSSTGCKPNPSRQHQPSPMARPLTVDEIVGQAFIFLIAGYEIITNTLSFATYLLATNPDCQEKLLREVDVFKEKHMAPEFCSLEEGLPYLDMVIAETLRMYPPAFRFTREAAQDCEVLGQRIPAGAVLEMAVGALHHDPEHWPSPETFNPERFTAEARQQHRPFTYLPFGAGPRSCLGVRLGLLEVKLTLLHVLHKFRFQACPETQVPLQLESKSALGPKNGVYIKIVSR
Put plainly: Compound was tested for activity against Thromboxane A2 synthase in human PRP; NI=No inhibition.

For a further series, the species on record is Homo sapiens. The series is described as follows: Compound was tested at 1 mM for the inhibition of ADP-induced (20 uM) platelet aggregation in human platelet-rich plasma; NI=No inhibition. In kind it is functional, organism-based.
The species named for another series is Bos taurus. Put plainly: Compound was tested at 1 nM for the inhibition of […] in bovine seminal vesicle microsomes; NI=No inhibition. It counts as functional.
The species entered for another series is Rattus norvegicus. The series is described as follows: Compound was tested for the inhibition of U46,619-induced contractions in rat aortas. In kind it is functional. The note with it: Aorta.
The next series concerns Monkey. The series is described as follows: Oral dose of compound required to inhibit the U46,619-induced platelet aggregation in ex vivo African green monkeys. In kind it is functional, Cercopithecidae.

For the compound `CCCCCNC(=O)c1coc([C@H]2[C@@H](Cc3ccccc3CCC(=O)O)[C@@H]3CC[C@H]2O3)n1` [IFETROBAN], the T50 in the series with Mus musculus worked out at 14 h. In addition, the bioavailability in series [1] worked out at 20%. Moreover, the outcome (in series [2]; in the series filed under Homo sapiens; in the series filed under Bos taurus) was inactive. The Kb in the series listed under Rattus norvegicus was 0.56 nM. In addition, the Dose with Monkey is 3 mg/kg.
